{"source": "paper PMC10574562", "about": "(Molecules, 2023)", "key": {"Cu-induced ROS": {"test_system": "Cu-induced ROS", "assay": "Cu-induced ROS inhibition", "settings": "± SD", "text": "Table 2 In vitro profiling for EDA 1 and selected analogues 2b, 2c and 4a. | column: Cu-Induced ROS Inhibition ^c,a"}, "[1]": {"assay": "Determination of distribution coefficient LogD7.4 (1-octanol/PBS)", "type": "physicochemical", "settings": "1-octanol/PBS pH 7.4; ± SD; read-out: Log D7.4", "experimental": "(§1) We experimentally confirmed their predicted poor to medium–good permeability profile by measuring their LogD at physiological pH through a known procedure, and by determining their percentage bound to model lipid bilayers after incubation, as a measure of their affinity for cell-membrane-like liposomes. Results are shown in Table 2 (LogD7.4, column 2; interaction with liposomes at 20 °C and 37 °C, columns 3 and 4, respectively).\nLogD7.4 values were determined by slightly modifying a reported procedure. Namely, an 80 mM solution of each selected EDA analogue in DMSO was diluted in 1-octanol at a final 800 μM concentration. UV–vis spectra were acquired to determine λmax and the necessary dilutions to obtain absorption values for each tested analogue; between 0.5 and 1. 5 mL of each solution were placed in 15 mL conical centrifuge tubes, PBS was added (5 mL, pH 7.4) and the biphasic system was vigorously mixed using a vortex mixer (VELP Scientifica, Usmate Velate, MB, Italy) for 4 min. After centrifugation (2000× g, 30 min), the 1-octanol phase absorption was measured at each compound’ λmax; the procedure was repeated to acquire data in triplicate. The distribution coefficient logD7.4 was calculated according to the following equation: LogD7.4 = Log ([C]oct/[C]PBS) = Log (Af/Ai − Af)(2) where Ai is the pre-extraction measured absorbance in 1-octanol and Af is the post-extraction final measured absorbance in 1-octanol."}, "[2]": {"assay": "Interaction with liposome cell membrane models", "type": "in vitro ADME", "experimental": "as §1\nEDA analogues dissolved in MeOH (0.1 mL) were added to 0.9 mL of large unilamellar phosphatidylcholine vesicles (PC LUVs) in PBS (3 mM lipid final concentration; 0.6 mM EDA analogue final concentration) and incubated at 37 °C for 20 min. Then, any remaining free EDA analogue was separated from liposomes by size-exclusion chromatography.\nA disposable syringe (2.5 mL) packed with hydrated Sephadex G-50 resin was placed in a 15 mL plastic test tube and preconditioned with PBS; then, the liposomal suspension (1 mL) was gently added on the top of the syringe and centrifuged at 500× g for 10 min. The eluate was collected at the bottom of the test tube and lysed by addition of Triton X-100 (final concentration 1% v/v). The concentration of each EDA analogue in each solution was estimated with the Folin–Ciocalteu assay. Namely, 50% Folin–Ciocalteu reagent (150 μL) was added to test samples (50 μL) into a 96-well microplate and shaken. After 10 min, a 7.5% sodium carbonate solution (0.1 mL) was added; the mixtures were incubated in the dark for 1 h at rt; and, finally, the absorbance was measured at 765 nm on a BioTek SynergyHT MicroPlate Reader spectrophotometer (Marshall Scientific, Hampton, NH, USA) using an appropriate blank. Reference calibration curves were plotted for every sample. The ratio (%) of the drug incorporated into the lipid bilayer was then calculated according to the following equation:% ratio of incorporated antioxidant = 100 × [incorporated amount]/[added amount](3)"}, "[3]": {"test_system": "oligodendrocyte progenitor cells (OPCs)", "assay": "MTT reduction assay on purified OPC cultures", "type": "cell-based, mouse", "settings": "10 μM; for Effect on metabolic activity of OPCs (MTT reduction): 48 h incubation, purified mouse OPCs, vs DMSO controls", "experimental": "Purified mouse OPCs were grown for 24 h and treated with EDA 1 and analogues 2b–4c (10 μM) for 44 h; then, MTT was added and OPCs were incubated for 4 h.\nPrimary cultures of purified OPC (>99%) were obtained from the cerebral hemispheres of newborn CD1 Swiss mice according to the authorization for the care and use of laboratory animals mentioned in Section 4.2.1. OPCs were grown in a defined serum-free Dulbecco’s Modified Eagle Medium (DMEM) without thyroid hormones at 1 × 10^5 cells/cm^2 into poly-L-lysine-coated 96-well microtiter plates for 3 days.\nOne day after plating, purified OPCs were incubated with or without EDA analogues (10 µM) in DMSO (0.001% vehicle) for 48 h. MTT reduction to formazan was carried out as previously described. MTT (Sigma-Aldrich, Milan, Italy) was added to the culture medium at a final 0.25 mg/mL concentration during the last 4 h of incubation."}, "[4]": {"assay": "Chemical stability in biological media (DPPH assay and TLC)", "type": "in vitro ADME", "settings": "PBS and standard medium, 20 min", "experimental": "We investigated the stability of 4′-ester EDA 2c and N^1-carbamate 4′-ester EDA 4a (respectively, black and grey bars, Figure 5) in biological media, checking both ester and N^1-carbamate stability in 4a both by thin-layer chromatography (TLC) and by checking the DPPH radical scavenging activity of 2c and 4a after incubation.\nNamely, 2c and 4a were incubated in PBS and in standard medium at 20 °C and 37 °C for 20 min; then, DPPH was added and the radical scavenging activity was measured in all media.\n4′-Ester 2c and N^1-carbamate ester 4a were incubated in PBS and in a standard cell culture medium supplemented with FBS 10% at 20 °C and 37 °C. After 20 min, appropriate aliquots of the solutions were mixed with DPPH in methanol (25 µM, DPPH 100 µM, final concentration) and the DPPH radical scavenging assay was carried out as described above. Assay media after incubation were also monitored by TLC (eluent mixture: 1:1 cyclohexane/AcOEt)."}, "[5]": {"assay": "DPPH radical scavenging assay", "settings": "25 µM analogue, 100 µM DPPH, MeOH, 30 min incubation", "experimental": "A DPPH assay was carried out after 30 min of incubation with EDA 1 and its analogues in reported conditions to determine their radical scavenging ability.\nThe DPPH free radical scavenging activity of EDA analogues was determined using a previously described method. Appropriate aliquots of putative antioxidants 1–13c were mixed with DPPH in methanol (25 µM EDA analogue, 100 µM DPPH, final concentration); the reaction mixtures were shaken and then incubated for 30 min in the dark. Their absorbances, and the absorbance of a DPPH solution as a negative control, were then measured at 517 nm with a BioTek SynergyHT MicroPlate Reader spectrophotometer (Marshall Scientific, Hampton, NH, USA) against methanol as blank. The scavenging percentage of each EDA analogue was calculated according to the following equation:DPPH radical scavenging (%) = [(Acontrol—Asample)/Acontrol] × 100,(1) where Acontrol is the control absorbance obtained by adding a methanol aliquot equal to the EDA analogue solution volume added to the methanolic DPPH solution and Asample is the absorbance of each test solution after 30 min incubation. All experiments were repeated at least three times, and measurements were run in triplicate."}, "[6]": {"test_system": "oligodendrocyte progenitor cells (OPCs)", "assay": "MTT reduction assay on purified OPC cultures", "type": "cell-based, mouse", "settings": "lower dosages than 10 μM (not shown)"}}, "note": "“Also recorded” adds a separate entry of the source.", "data": [{"smiles": "CC1=NN(c2ccccc2)C(=O)C1", "note": "[Compound 1, edaravone, reference compound]", "values": [{"measurement": "IC50", "setting": "Cu-induced ROS", "result": "14 ± 2", "unit": "µM"}, {"measurement": "logD", "setting": "[1]", "result": "1.1 ± 0.1"}, {"measurement": "Affinity for a Model Lipid Bilayer, % ratio of liposome-bound EDA analogue", "setting": "[2]; 20 °C", "result": "37 ± 3", "unit": "%"}, {"measurement": "Affinity for a Model Lipid Bilayer, % ratio of liposome-bound EDA analogue", "setting": "[2]; 37 °C", "result": "53 ± 2", "unit": "%"}]}, {"smiles": "COC(=O)c1ccc(-n2c(=O)cc(C)n2C(=O)OC(C)(C)C)cc1", "note": "[Compound 4a, Tert-butyl 2-(4-(methoxycarbonyl)phenyl)-5-methyl-3-oxo-2,3-dihydro-1H-pyrazole-1-carboxylate]", "values": [{"measurement": "Effect on metabolic activity of OPCs (MTT reduction)", "setting": "[3]", "result": "stimulated OPC metabolism comparably to EDA 1; also recorded: comparable stimulation of OPC metabolism"}, {"measurement": "IC50", "setting": "Cu-induced ROS", "result": "65 ± 6", "unit": "µM"}, {"measurement": "logD", "setting": "[1]", "result": "2.3 ± 0.4"}, {"measurement": "Affinity for a Model Lipid Bilayer, % ratio of liposome-bound EDA analogue", "setting": "[2]; 20 °C", "result": "88 ± 6", "unit": "%"}, {"measurement": "Affinity for a Model Lipid Bilayer, % ratio of liposome-bound EDA analogue", "setting": "[2]; 37 °C", "result": "77 ± 4", "unit": "%"}, {"measurement": "DPPH radical scavenging activity after incubation in biological media", "setting": "[4]; 20 °C", "result": "did not scavenge DPPH"}, {"measurement": "Stability in biological media by TLC", "setting": "[4]; 20 °C", "result": "stability was confirmed by TLC"}, {"measurement": "DPPH radical scavenging activity after incubation in biological media", "setting": "[4]; 37 °C", "result": "significant antioxidant activity was detected"}, {"measurement": "Stability in biological media by TLC (N^1-carbamate)", "setting": "[4]; 37 °C", "result": "N^1-carbamate hydrolysis and 2c formation; also recorded: fully removed"}]}, {"smiles": "O=C1CC(COCc2ccccc2)=NN1c1ccccc1", "note": "[Compound 3b]", "values": [{"measurement": "DPPH radical scavenging/antioxidant activity", "setting": "[5]", "result": "comparable antioxidant activity to EDA 1"}]}, {"smiles": "CC1=NN(c2ccc(C(=O)O)cc2)C(=O)C1", "note": "[Compound 2b]", "values": [{"measurement": "IC50", "setting": "Cu-induced ROS", "result": "38 ± 5", "unit": "µM"}, {"measurement": "logD", "setting": "[1]", "result": "-0.74 ± 0.19"}, {"measurement": "DPPH radical scavenging/antioxidant activity", "setting": "[5]", "result": "significantly more potent than EDA 1; also recorded: significantly higher antioxidant activity than parent EDA 1"}, {"measurement": "Affinity for a Model Lipid Bilayer, % ratio of liposome-bound EDA analogue", "setting": "[2]; 20 °C", "result": "38 ± 4", "unit": "%"}, {"measurement": "Affinity for a Model Lipid Bilayer, % ratio of liposome-bound EDA analogue", "setting": "[2]; 37 °C", "result": "45 ± 2", "unit": "%"}]}, {"smiles": "CC1=NN(c2ccc(C(=O)NCCCCCCN=[N+]=[N-])cc2)C(=O)C1", "note": "[Compound 2e]", "values": [{"measurement": "Effect on metabolic activity of OPCs (MTT reduction)", "setting": "[3]", "result": "did not stimulate OPC development compared to DMSO controls; also recorded: lack of activity on OPCs"}]}, {"smiles": "CCC1=NN(c2ccccc2)C(=O)C1", "note": "[Compound 3a]", "values": [{"measurement": "Cytotoxicity on OPCs in MTT assay", "setting": "[3]", "result": "cytotoxic at this concentration"}, {"measurement": "DPPH radical scavenging/antioxidant activity", "setting": "[5]", "result": "comparable antioxidant activity to EDA 1"}, {"measurement": "OPC activity in MTT assay at lower dosages", "setting": "[6]", "result": "inactive at lower dosages"}]}, {"smiles": "CC1=NN(c2ccc(C(=O)NCc3ccc(C4(C(F)(F)F)N=N4)cc3)cc2)C(=O)C1", "note": "[Compound 2f]", "values": [{"measurement": "Cytotoxicity on OPCs in MTT assay", "setting": "[3]", "result": "cytotoxic at this concentration"}, {"measurement": "Effect on metabolic activity of OPCs (MTT reduction)", "setting": "[3]", "result": "lack of activity on OPCs"}, {"measurement": "OPC activity in MTT assay at lower dosages", "setting": "[6]", "result": "inactive at lower dosages"}]}, {"smiles": "CC1=NN(c2ccc(CN=[N+]=[N-])cc2)C(=O)C1", "note": "[Compound 2h]", "values": [{"measurement": "Effect on metabolic activity of OPCs (MTT reduction)", "setting": "[3]", "result": "did not stimulate OPC development compared to DMSO controls; also recorded: lack of activity on OPCs"}, {"measurement": "DPPH radical scavenging/antioxidant activity", "setting": "[5]", "result": "comparable antioxidant activity to EDA 1"}]}, {"smiles": "CC1=NN(c2ccc(CO)cc2)C(=O)C1", "note": "[Compound 2g]", "values": [{"measurement": "DPPH radical scavenging/antioxidant activity", "setting": "[5]", "result": "comparable antioxidant activity to EDA 1"}]}, {"smiles": "COC(=O)c1ccc(N2N=C(C)CC2=O)cc1", "note": "[Compound 2c, Methyl 4-(3-methyl-5-oxo-4,5-dihydro-1H-pyrazol-1-yl)benzoate]", "values": [{"measurement": "Effect on metabolic activity of OPCs (MTT reduction)", "setting": "[3]", "result": "stimulated OPC metabolism comparably to EDA 1; also recorded: comparable stimulation of OPC metabolism"}, {"measurement": "IC50", "setting": "Cu-induced ROS", "result": "53 ± 7", "unit": "µM"}, {"measurement": "logD", "setting": "[1]", "result": "1 ± 0.1"}, {"measurement": "DPPH radical scavenging/antioxidant activity", "setting": "[5]", "result": "comparable antioxidant activity to EDA 1"}, {"measurement": "Affinity for a Model Lipid Bilayer, % ratio of liposome-bound EDA analogue", "setting": "[2]; 20 °C", "result": "52 ± 2", "unit": "%"}, {"measurement": "Affinity for a Model Lipid Bilayer, % ratio of liposome-bound EDA analogue", "setting": "[2]; 37 °C", "result": "71 ± 2", "unit": "%"}, {"measurement": "DPPH radical scavenging activity after incubation in biological media", "setting": "[4]; 20 °C and 37 °C", "result": "expected radical scavenging activity"}, {"measurement": "Stability in biological media by TLC", "setting": "[4]; 20 °C and 37 °C", "result": "stability in biological media was confirmed"}]}, {"smiles": "CC1=NN(c2ccc(C(=O)NCCN=[N+]=[N-])cc2)C(=O)C1", "note": "[Compound 2d]", "values": [{"measurement": "Effect on metabolic activity of OPCs (MTT reduction)", "setting": "[3]", "result": "did not stimulate OPC development compared to DMSO controls; also recorded: lack of activity on OPCs"}, {"measurement": "DPPH radical scavenging/antioxidant activity", "setting": "[5]", "result": "comparable antioxidant activity to EDA 1"}]}]}
